According to PMC5218480 (PLoS ONE, 2017):

Tested on: MV-4-11 cells
Assay: Gene expression microarray analysis (Affymetrix PrimeView) and GSEA
Type: cell-based, human
Parameters: RFU PODN (11730768_x_at) / Fold change /veh PODN (11730768_x_at) / RFU LINC00158 (11744669_a_at) / Fold change /veh LINC00158 (11744669_a_at) / RFU DUSP10 (11751237_a_at) / Fold change /veh DUSP10 (11751237_a_at) / RFU ID3 (11757404_x_at) / Fold change /veh ID3 (11757404_x_at) / RFU PLEKHG5 (11737974_s_at) / Fold change /veh PLEKHG5 (11737974_s_at) / RFU LRRC4B (11730491_at) / Fold change /veh LRRC4B (11730491_at) / RFU GIMAP4 (11747438_a_at) / Fold change /veh GIMAP4 (11747438_a_at) / RFU KRT8 (11758183_x_at) / Fold change /veh KRT8 (11758183_x_at) / RFU CNN1 (11734310_a_at) / Fold change /veh CNN1 (11734310_a_at) / RFU VPS37D (11726825_at) / Fold change /veh VPS37D (11726825_at) / RFU C10orf10 (11716522_x_at) / Fold change /veh C10orf10 (11716522_x_at) / RFU KIR2DL2 /// KIR2DL4 /// KIR2DL5A /// KIR2DL5B /// KIR2DS1 /// KIR2DS2 /// KIR2DS3 /// KIR2DS4 /// KIR3DL3 /// KIR3DL3 /// KIR3DS1 (11738374_at) / Fold change /veh KIR2DL2 /// KIR2DL4 /// KIR2DL5A /// KIR2DL5B /// KIR2DS1 /// KIR2DS2 /// KIR2DS3 /// KIR2DS4 /// KIR3DL3 /// KIR3DL3 /// KIR3DS1 (11738374_at) / RFU C1QL1 (11718748_at) / Fold change /veh C1QL1 (11718748_at) / RFU TMPRSS4 (11747572_a_at) / Fold change /veh TMPRSS4 (11747572_a_at) / RFU HAMP (11756126_x_at) / Fold change /veh HAMP (11756126_x_at) / RFU RNFT2 (11725882_a_at) / Fold change /veh RNFT2 (11725882_a_at) / RFU NR4A2 (11747474_a_at) / Fold change /veh NR4A2 (11747474_a_at) / RFU ABCC12 (11746883_a_at) / Fold change /veh ABCC12 (11746883_a_at) / RFU TMEM136 (11760407_x_at) / Fold change /veh TMEM136 (11760407_x_at) / RFU CLDN22 /// WWC2 (11732394_at) / Fold change /veh CLDN22 /// WWC2 (11732394_at) / RFU HLA-DPB1 (11760878_x_at) / Fold change /veh HLA-DPB1 (11760878_x_at) / RFU SPINT1 (11716480_a_at) / Fold change /veh SPINT1 (11716480_a_at) / RFU GAP43 (11754022_s_at) / Fold change /veh GAP43 (11754022_s_at) / RFU A4GNT (11735810_at) / Fold change /veh A4GNT (11735810_at) / RFU PRB3 (11715151_x_at) / Fold change /veh PRB3 (11715151_x_at) / RFU TUBB4B (11761932_at) / Fold change /veh TUBB4B (11761932_at) / RFU CAPN14 (11732068_a_at) / Fold change /veh CAPN14 (11732068_a_at) / RFU TMCC2 (11721928_a_at) / Fold change /veh TMCC2 (11721928_a_at) / RFU IRGQ (11745062_a_at) / Fold change /veh IRGQ (11745062_a_at) / RFU FAM174B (11720279_a_at) / Fold change /veh FAM174B (11720279_a_at) / RFU TMPRSS4 (11748680_a_at) / Fold change /veh TMPRSS4 (11748680_a_at) / RFU FAM212B (11763350_a_at) / Fold change /veh FAM212B (11763350_a_at) / RFU PLEKHG5 (11743358_a_at) / Fold change /veh PLEKHG5 (11743358_a_at) / RFU ZSCAN30 (11745921_a_at) / Fold change /veh ZSCAN30 (11745921_a_at) / RFU CMKLR1 (11741424_a_at) / Fold change /veh CMKLR1 (11741424_a_at) / RFU LOC101060620 /// MAPK8IP1 (11723275_at) / Fold change /veh LOC101060620 /// MAPK8IP1 (11723275_at) / RFU SPTSSB (11747773_x_at) / Fold change /veh SPTSSB (11747773_x_at) / RFU PRSS12 (11739890_at) / Fold change /veh PRSS12 (11739890_at) / RFU BIN1 (11741810_x_at) / Fold change /veh BIN1 (11741810_x_at) / RFU WNT11 (11732464_a_at) / Fold change /veh WNT11 (11732464_a_at) / RFU C10orf10 (11716521_a_at) / Fold change /veh C10orf10 (11716521_a_at) / RFU C5orf56 (11738089_at) / Fold change /veh C5orf56 (11738089_at) / RFU CYB561 (11721691_x_at) / Fold change /veh CYB561 (11721691_x_at) / RFU ANKRD19P (11752326_a_at) / Fold change /veh ANKRD19P (11752326_a_at) / RFU OR2T12 /// OR2T33 /// OR2T8 (11738714_s_at) / Fold change /veh OR2T12 /// OR2T33 /// OR2T8 (11738714_s_at) / RFU VCAN (11748164_a_at) / Fold change /veh VCAN (11748164_a_at) / RFU JSRP1 (11732532_at) / Fold change /veh JSRP1 (11732532_at) / RFU KRTAP10-11 (11738290_x_at) / Fold change /veh KRTAP10-11 (11738290_x_at) / RFU MYO3A (11730013_a_at) / Fold change /veh MYO3A (11730013_a_at) / RFU EBF3 (11725865_a_at) / Fold change /veh EBF3 (11725865_a_at) / RFU CAMK2N1 (11719241_x_at) / Fold change /veh CAMK2N1 (11719241_x_at) / RFU C5orf56 (11738088_a_at) / Fold change /veh C5orf56 (11738088_a_at) / RFU OLFML3 (11715873_a_at) / Fold change /veh OLFML3 (11715873_a_at) / RFU LOC100653217 /// NTM (11731650_a_at) / Fold change /veh LOC100653217 /// NTM (11731650_a_at) / RFU MAPK11 (11762145_a_at) / Fold change /veh MAPK11 (11762145_a_at) / RFU FIZ1 (11724087_x_at) / Fold change /veh FIZ1 (11724087_x_at) / RFU OASL (11726364_x_at) / Fold change /veh OASL (11726364_x_at) / RFU SOX15 (11748057_x_at) / Fold change /veh SOX15 (11748057_x_at) / RFU CD79A (11719716_a_at) / Fold change /veh CD79A (11719716_a_at) / RFU HIST1H1D (11736915_at) / Fold change /veh HIST1H1D (11736915_at) / RFU CASKIN2 (11723855_a_at) / Fold change /veh CASKIN2 (11723855_a_at) / RFU LOC730098 (11760151_x_at) / Fold change /veh LOC730098 (11760151_x_at) / RFU OR4N2 (11742367_at) / Fold change /veh OR4N2 (11742367_at) / RFU PRRT2 (11749266_a_at) / Fold change /veh PRRT2 (11749266_a_at) / RFU SNX32 (11753110_a_at) / Fold change /veh SNX32 (11753110_a_at) / RFU CDHR5 (11726645_a_at) / Fold change /veh CDHR5 (11726645_a_at) / RFU RCAN1 (11760418_a_at) / Fold change /veh RCAN1 (11760418_a_at) / RFU FAM167A (11723789_a_at) / Fold change /veh FAM167A (11723789_a_at) / RFU FAM26E (11764081_at) / Fold change /veh FAM26E (11764081_at) / RFU ISYNA1 (11749810_s_at) / Fold change /veh ISYNA1 (11749810_s_at) / RFU ACY1 (11761880_at) / Fold change /veh ACY1 (11761880_at) / RFU 11764098_at / Fold change /veh 11764098_at / RFU SAMD14 (11745864_x_at) / Fold change /veh SAMD14 (11745864_x_at) / RFU NPB (11741838_a_at) / Fold change /veh NPB (11741838_a_at) / RFU TMPRSS6 (11731388_a_at) / Fold change /veh TMPRSS6 (11731388_a_at) / RFU KRTAP10-2 (11738614_at) / Fold change /veh KRTAP10-2 (11738614_at) / RFU ARHGAP8 /// PRR5-ARHGAP8 (11727945_x_at) / Fold change /veh ARHGAP8 /// PRR5-ARHGAP8 (11727945_x_at) / RFU KRTAP5-7 /// NADSYN1 (11734609_at) / Fold change /veh KRTAP5-7 /// NADSYN1 (11734609_at) / RFU RASL12 (11751679_a_at) / Fold change /veh RASL12 (11751679_a_at) / RFU CDKN2B (11736163_a_at) / Fold change /veh CDKN2B (11736163_a_at) / RFU PRF1 (11729649_at) / Fold change /veh PRF1 (11729649_at) / RFU, ZNF638 /// ZNF638-IT1 / Fold change vs veh, ZNF638 /// ZNF638-IT1 / RFU, PANK3 / Fold change vs veh, PANK3 / RFU, SH3YL1 / Fold change vs veh, SH3YL1 / RFU, ZEB2 / Fold change vs veh, ZEB2 / RFU, NRIP1 / Fold change vs veh, NRIP1 / RFU, PTTG1IP / Fold change vs veh, PTTG1IP / RFU, CAPN2 / Fold change vs veh, CAPN2 / RFU, MED14 / Fold change vs veh, MED14 / RFU, SNORA58 / Fold change vs veh, SNORA58 / RFU, C1orf63 / Fold change vs veh, C1orf63 / RFU, LRRFIP1 / Fold change vs veh, LRRFIP1 / RFU, NDUFAF7 / Fold change vs veh, NDUFAF7 / RFU, SLC12A2 / Fold change vs veh, SLC12A2 / RFU, IBTK / Fold change vs veh, IBTK / RFU, ESF1 / Fold change vs veh, ESF1 / Fold change vs veh, TMEM50B / RFU, TAOK1 / Fold change vs veh, TAOK1 / RFU, ACBD3 / Fold change vs veh, ACBD3 / RFU, TMA16 / Fold change vs veh, TMA16 / RFU, RWDD3 / Fold change vs veh, RWDD3 / RFU, BCAT1 / Fold change vs veh, BCAT1 / RFU, EDEM3 / Fold change vs veh, EDEM3 / RFU, TMEM33 / Fold change vs veh, TMEM33 / RFU, WDR75 / Fold change vs veh, WDR75 / RFU, AHCTF1 / Fold change vs veh, AHCTF1 / RFU, TFRC / Fold change vs veh, TFRC / RFU, ZDHHC17 / Fold change vs veh, ZDHHC17 / RFU, NOM1 / Fold change vs veh, NOM1 / RFU, ARL8B / Fold change vs veh, ARL8B / RFU, ZBTB11 / Fold change vs veh, ZBTB11 / RFU, TAMM41 / Fold change vs veh, TAMM41 / RFU, KIAA1704 /// LOC100996395 / Fold change vs veh, KIAA1704 /// LOC100996395 / RFU, ING1 / Fold change vs veh, ING1 / RFU, TRMT61B / Fold change vs veh, TRMT61B / RFU, FUBP3 / Fold change vs veh, FUBP3 / RFU, TP53 / Fold change vs veh, TP53 / RFU, TNKS2 / Fold change vs veh, TNKS2 / RFU, ZFP14 / Fold change vs veh, ZFP14 / RFU, ACTR2 / Fold change vs veh, ACTR2 / RFU, PPP3R1 / Fold change vs veh, PPP3R1 / RFU, PIK3R1 / Fold change vs veh, PIK3R1 / RFU, HNRNPA1 / Fold change vs veh, HNRNPA1 / RFU, RNF170 / Fold change vs veh, RNF170 / RFU, ZNF28 / Fold change vs veh, ZNF28 / RFU, RNGTT / Fold change vs veh, RNGTT / RFU, OGT / Fold change vs veh, OGT / RFU, BRD1 / Fold change vs veh, BRD1 / RFU, MARS / Fold change vs veh, MARS / RFU, ZNF655 / Fold change vs veh, ZNF655 / RFU, FAHD1 / Fold change vs veh, FAHD1 / RFU, BDP1 / Fold change vs veh, BDP1 / RFU, LRRCC1 / Fold change vs veh, LRRCC1 / RFU, ARID1A / Fold change vs veh, ARID1A / RFU, ZNF146 / Fold change vs veh, ZNF146 / RFU, ZNF330 / Fold change vs veh, ZNF330 / RFU, GPN3 / Fold change vs veh, GPN3 / RFU, C9orf123 / Fold change vs veh, C9orf123 / RFU, N4BP2L2 / Fold change vs veh, N4BP2L2 / RFU, ARFIP1 / Fold change vs veh, ARFIP1 / RFU, FAM179B / Fold change vs veh, FAM179B / RFU, BCL10 / Fold change vs veh, BCL10 / RFU, UHRF1BP1L / Fold change vs veh, UHRF1BP1L / RFU, BET1 / Fold change vs veh, BET1 / RFU, CNOT2 / Fold change vs veh, CNOT2 / RFU, ZNF268 / Fold change vs veh, ZNF268 / Fold change vs veh, ZNF507 / RFU, DGCR2 / Fold change vs veh, DGCR2 / RFU, WDSUB1 / Fold change vs veh, WDSUB1 / Fold change vs veh, HSP90B1 /// MIR3652 / RFU, ADSS / Fold change vs veh, ADSS / RFU, GK / Fold change vs veh, GK / RFU, ZNF148 / Fold change vs veh, ZNF148 / RFU, TAF9 / Fold change vs veh, TAF9 / RFU, SLC1A5 / Fold change vs veh, SLC1A5 / RFU, SLMO2 / Fold change vs veh, SLMO2 / RFU, ABCC4 / Fold change vs veh, ABCC4 / RFU, LOC101060439 /// RAP1B / Fold change vs veh, LOC101060439 /// RAP1B / RFU, RFX7 / Fold change vs veh, RFX7 / RFU, GTPBP10 / Fold change vs veh, GTPBP10 / RFU, CNEP1R1 / Fold change vs veh, CNEP1R1 / RFU, BIVM-ERCC5 /// ERCC5 / Fold change vs veh, BIVM-ERCC5 /// ERCC5 / RFU, ILF3 / Fold change vs veh, ILF3 / RFU 11762660_at / Fold change /veh 11762660_at / RFU VCAN (11757783_s_at) / Fold change /veh VCAN (11757783_s_at) / RFU DDX43 (11728927_at) / Fold change /veh DDX43 (11728927_at) / RFU KRT8 (11758188_x_at) / Fold change /veh KRT8 (11758188_x_at) / RFU NKD1 (11759106_at) / Fold change /veh NKD1 (11759106_at) / RFU SRD5A1 (11742802_a_at) / Fold change /veh SRD5A1 (11742802_a_at) / RFU TPSAB1 /// TPSB2 (11721975_s_at) / Fold change /veh TPSAB1 /// TPSB2 (11721975_s_at) / RFU GSTM3 (11746129_a_at) / Fold change /veh GSTM3 (11746129_a_at) / RFU IL23R (11737362_x_at) / Fold change /veh IL23R (11737362_x_at) / RFU TMEM51 (11727254_a_at) / Fold change /veh TMEM51 (11727254_a_at) / RFU PIWIL2 (11732686_x_at) / Fold change /veh PIWIL2 (11732686_x_at) / RFU ORM1 (11744905_x_at) / Fold change /veh ORM1 (11744905_x_at) / RFU CCDC152 (11743942_at) / Fold change /veh CCDC152 (11743942_at) / RFU ECM1 (11717891_a_at) / Fold change /veh ECM1 (11717891_a_at) / RFU IL23R (11748794_a_at) / Fold change /veh IL23R (11748794_a_at) / RFU TNFAIP8L3 (11732012_x_at) / Fold change /veh TNFAIP8L3 (11732012_x_at) / RFU MBOAT4 (11741988_at) / Fold change /veh MBOAT4 (11741988_at) / RFU 11764193_at / Fold change /veh 11764193_at / RFU TMEM53 (11763286_at) / Fold change /veh TMEM53 (11763286_at) / RFU MAGEB2 (11727129_at) / Fold change /veh MAGEB2 (11727129_at) / RFU TMEM200A (11744735_a_at) / Fold change /veh TMEM200A (11744735_a_at) / RFU CCDC152 (11751479_a_at) / Fold change /veh CCDC152 (11751479_a_at) / RFU FAM211A (11726209_a_at) / Fold change /veh FAM211A (11726209_a_at) / RFU RGS16 (11746705_a_at) / Fold change /veh RGS16 (11746705_a_at) / RFU VCAN (11755009_s_at) / Fold change /veh VCAN (11755009_s_at) / RFU RHOB (11743442_s_at) / Fold change /veh RHOB (11743442_s_at) / RFU RGS16 (11720943_a_at) / Fold change /veh RGS16 (11720943_a_at) / RFU RGS16 (11720944_at) / Fold change /veh RGS16 (11720944_at) / RFU, VPS4B / Fold change vs veh, VPS4B / RFU, CREB1 / Fold change vs veh, CREB1 / RFU, DNAJC13 / Fold change vs veh, DNAJC13 / RFU, GNAQ / Fold change vs veh, GNAQ / RFU, CDK5R1 / Fold change vs veh, CDK5R1 / RFU, ZRANB3 / Fold change vs veh, ZRANB3 / RFU, CUL4A / Fold change vs veh, CUL4A / RFU, CCNY / Fold change vs veh, CCNY / RFU, UFL1 / Fold change vs veh, UFL1 / RFU, COG3 / Fold change vs veh, COG3 / RFU, DIAPH2 / Fold change vs veh, DIAPH2 / RFU, SKA2 / Fold change vs veh, SKA2 / RFU, AFF3 / Fold change vs veh, AFF3 / RFU, LMF1 / Fold change vs veh, LMF1 / RFU, IPO11 / Fold change vs veh, IPO11 / RFU, DFFB / Fold change vs veh, DFFB / RFU, FOXP1 / Fold change vs veh, FOXP1 / RFU, CARD8 / Fold change vs veh, CARD8 / RFU, STRN3 / Fold change vs veh, STRN3 / RFU, ADK / Fold change vs veh, ADK / RFU, RASSF2 / Fold change vs veh, RASSF2 / RFU, WIPF1 / Fold change vs veh, WIPF1 / RFU, LARP1B / Fold change vs veh, LARP1B / RFU, RASA1 / Fold change vs veh, RASA1 / RFU, RB1 / Fold change vs veh, RB1 / RFU, PPFIA1 / Fold change vs veh, PPFIA1 / RFU, MAT2A / Fold change vs veh, MAT2A / RFU, CCT5 / Fold change vs veh, CCT5 / RFU, WDR92 / Fold change vs veh, WDR92 / RFU, CUX1 / Fold change vs veh, CUX1 / RFU, TTC7A / Fold change vs veh, TTC7A / RFU, TMEM135 / Fold change vs veh, TMEM135 / RFU, DEPTOR / Fold change vs veh, DEPTOR / RFU, CPM / Fold change vs veh, CPM / RFU, DNAJB6 / Fold change vs veh, DNAJB6 / RFU, CACNA2D3 / Fold change vs veh, CACNA2D3 / RFU, DTX4 / Fold change vs veh, DTX4 / RFU, TFCP2 / Fold change vs veh, TFCP2 / RFU, GMCL1 /// GMCL1P1 / Fold change vs veh, GMCL1 /// GMCL1P1 / RFU, AEBP2 / Fold change vs veh, AEBP2 / RFU, SNHG1 /// SNORD22 /// SNORD25 /// SNORD26 /// SNORD27 /// SNORD28 /// SNORD29 /// SNORD31 / Fold change vs veh, SNHG1 /// SNORD22 /// SNORD25 /// SNORD26 /// SNORD27 /// SNORD28 /// SNORD29 /// SNORD31 / Fold change (Aza/veh), C12orf56 (ProbeSet 11735607_a_at) / Fold change (ACY-1035/veh), C12orf56 (ProbeSet 11735607_a_at) / Fold change (Aza/veh), FGFR1OP (ProbeSet 11751329_s_at) / Fold change (ACY-1035/veh), FGFR1OP (ProbeSet 11751329_s_at) / Fold change (Aza/veh), VPS36 (ProbeSet 11739960_a_at) / Fold change (ACY-1035/veh), VPS36 (ProbeSet 11739960_a_at) / RFU SYPL1 (11715823_x_at) / Fold change /veh SYPL1 (11715823_x_at) / RFU IGFBP7 (11715501_s_at) / Fold change /veh IGFBP7 (11715501_s_at) / RFU REEP3 (11722064_at) / Fold change /veh REEP3 (11722064_at) / RFU IGLL1 (11728026_x_at) / Fold change /veh IGLL1 (11728026_x_at): dose or concentration left out as unconfirmed
Conditions: MV-4-11 cells, 48 hours

Nc1ncn([C@@H]2O[C@H](CO)[C@@H](O)[C@H]2O)c(=O)n1 [azacitidine]
RFU CDHR5 (11726645_a_at): 45.99 RFU
